# In US20240369511A1, “INTEGRATED ELECTROCHEMICAL APTASENSORS FOR MEASURING CELL DEATH AND CYTOKINE ACTIVITY FROM INTACT TISSUE SAMPLES” (University of Washington, priority 2023, published 2024):
# Several values for one entry are separate records, joined by “and”; a condition that tells them apart may be missing. Identical values can stand only once.
# B1: CytC aptamer (SEQ ID NO:1) (ssDNA)
# DNA: CCGTGTCTGGGGCCGACCGGCGCATTGGGTACGTTGTTGC
# modifications: 5' ThioMC6-D (disulfide C6 thiol, attached to gold electrode); 3' amino modifier conjugated to methylene blue
# Key:
# CytC [1] = biological target: T1, CytC (Homo sapiens, UniProt P99999); assay: CytC aptasensor calibration curve by square wave voltammetry; assay type: binding
# T1 construct: purchased RayBiotech Life, Inc (GA, USA)
# T1 sequence (P99999 whole entry): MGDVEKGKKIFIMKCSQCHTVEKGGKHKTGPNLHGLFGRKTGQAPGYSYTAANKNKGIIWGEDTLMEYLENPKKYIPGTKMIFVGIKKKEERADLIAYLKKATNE
# From the text: (§1) Characterization of the electrochemical aptamer-based sensor. An electrochemical sensor with a modified aptamer that recognizes CytC was developed, enabling real-time monitoring of CytC increases in the supernatant due to cell death in cuboids during drug screening. The aptamer sequences were modified with a redox-active molecule, methylene blue (MB), at the distal end of the aptamer. As shown at FIG. 2A, the binding of the CytC target induces a rapid and reversible conformational change in the aptamer, increasing the electron transfer (eT) rate between the MB reporter and the WE surface. This change in eT results in a measurable variation in redox current, easily detectable using square wave voltammetry (SWV). Changes in peak current height were monitored, which correlates with the proximity of the MB redox tag to the electrode. The performance of the aptasensors in response to varying concentrations of CytC (ranging from 1 to 30,000 ng/mL) is presented at FIG. 2B. At a recording frequency of 50 Hz, the peak current height of the sensors decreases as the CytC concentration increases.
# Electrochemical signal measurement. All the electrochemical measurements were performed using a Digi-Ivy potentiostat (DY-2219, Digi-Ivy, Austin, TX, USA). For the SWV measurements, the sensors were integrated from 0.0 to −0.5 V (versus Ag/AgCl) with 40-mV amplitude and a voltage increment of 1 mV suitable frequency setting (ranging from 10 Hz to 1,000 Hz). A conventional three-electrode cell was used in electrodeposition, Ag/AgCl with 3M KCl as reference electrode, and platinum wire (0.05 mm diameter, Alfa Aesar, MA, USA) as counter electrode.
# Quantitative analysis and characterization of the Cyt C aptamer sensor. The CytC sensors were characterized in cultured medium DMEM-F12-10% FBS with spiked human CytC recombinant (reconstituted in PBS). The SWV measurement for aptasensors was scanned from −0.5 V to 0 V with 40-mV amplitude and a step potential of 1 mV. The frequency is 50 Hz and 1,000 Hz.
# CytC [2] = biological target: T1, CytC; assay: Binding kinetics of the CytC aptasensor (temporal response, flow injection analysis)
# From the text: Binding kinetics of the CytC aptasensor. The binding kinetics of aptamer-protein complexes were further evaluated. […] Next, the monomolecular dissociation rate constant (koff) was computed. The aptasensor platform was adapted for flow injection analysis under constant flow. The sensor platform was modified to incorporate an inlet and outlet loop injection system. With this setup, the different phases of aptamer-target interaction were able to be measured, including association, dissociation, and equilibrium. […] Initially, the aptamer remained unbound in the absence of the target, producing baseline levels of current. The introduction of the target initiated the association phase, which led to the occupation of aptamer binding sites. This phase continued until a steady-state or equilibrium point was attained. Subsequently, the semi-automated target removal initiated the dissociation phase of the aptamer-target complex. The continuous flow of the medium enabled the aptasensor to recover eventually, gradually returning to the baseline levels within approximately 12 hrs.
# Modify sensor platform to become injection analysis platform for characterization of binding kinetics. The existing platform was modified by introducing an additional PMMA layer to establish channels and the well layer altered to create a sealed chamber for flow injection. The PMMA layer (0.3 mm thick) was lined with 3M300LSE adhesive before being precisely cut using a CO2 laser. The culture medium was injected through tubing (Tygona, Cole-Parmer, IL, USA) connected to the injector loop at a 2.5 mL/min flow rate using a Fusion 200 syringe pump (Chemyx, Inc, TX, USA). Following a 5-minute equilibration period during which the sensors were exposed to continuous medium flow, CytC was introduced into the flow as the target compound.
# CytC [3] = biological target: T1, CytC; assay: Selectivity of the CytC aptasensor against interferents and drugs; assay type: binding
# Protocol: Selectivity of the CytC aptasensor. Selectivity is a factor for the practical application of these sensors in tumor-on-a-chip models for drug screening. To assess the selectivity of the sensors, experiments were conducted in which the sensor's responses to CytC (100 ng/mL) vs. responses in the presence of other potentially interfering molecules (also at 100 ng/mL) were measured. Measurements were performed in a growth medium at 50 Hz.
# Ex-vivo monitoring of CytC from microdissected tumor tissues after drug treatment in culture using the aptasensor platform. The sensor platform's ability to quantify CytC secretion from cuboids was evaluated at different time points during an extended culture period (48 hrs). Cuboids from human U87 glioma cell-derived tumors grown in athymic nude mice were prepared. […] Next, the sensor platform's ability to measure CytC secretion from cuboids in response to exposure to cytotoxic drugs was evaluated. Initially, the baseline signal was measured with the encapsulated cuboids on the WE before exposing U87 cuboids to different concentrations of cisplatin (a cytotoxic chemotherapy drug, FIG. 5C), sepantronium bromide, (YM-155, a survivin inhibitor and potential anti-cancer drug, FIG. 5D), and mocetinostat (MOC, a histone deacetylases inhibitor cancer drug, FIG. 5E) for 48 hrs. […]
# [4] = system: U87 glioma xenograft cuboids; assay: On-device aptasensor monitoring of CytC secretion from drug-treated cuboids; assay type: cell-based; settings: for CytC level vs control: 12 to 48 hrs
# Protocol: Ex-vivo monitoring of CytC from microdissected tumor tissues after drug treatment in culture using the aptasensor platform. The sensor platform's ability to quantify CytC secretion from cuboids was evaluated at different time points during an extended culture period (48 hrs). Cuboids from human U87 glioma cell-derived tumors grown in athymic nude mice were prepared. After overnight culture in a 96-well plate to allow recovery from tissue damage due to the cutting procedure, the cuboids were transferred onto the sensor platform for measurement. To prevent random adhesion of the cuboids to the sensor surface and improve the precise localization of CytC secretion detection, the cuboids were encapsulated in a hydrogel. They were mixed with hydrogel before transferring onto the sensors and immobilizing them to a restricted area just above the working electrode (FIGS. 5A-5B). […] Encapsulation of cells in hydrogels in close proximity to the WE also generates a more localized and distinguishable electrochemical response. Hydrogels can be used as a protective layer to ensure the long-term stability of aptasensors. A polysaccharide hydrogel (Cellink, Bioink, Boston, USA) that contains nanofibrillar cellulose and sodium alginate was used. […] It was also observed that the performance of the sensors remained unhindered regardless of the hydrogel concentration, apart from an extension of the reaction time to approximately 30 min. […] Next, the sensor platform's ability to measure CytC secretion from cuboids in response to exposure to cytotoxic drugs was evaluated. Initially, the baseline signal was measured with the encapsulated cuboids on the WE before exposing U87 cuboids to different concentrations of cisplatin (a cytotoxic chemotherapy drug, FIG. 5C), sepantronium bromide, (YM-155, a survivin inhibitor and potential anti-cancer drug, FIG. 5D), and mocetinostat (MOC, a histone deacetylases inhibitor cancer drug, FIG. 5E) for 48 hrs. […] These observations were consistent with fluorescence-based findings and agreed with the sensor-based responses. […]
# [5] = system: U87 glioma xenograft cuboids; assay: Terminal SYTOX green dead stain fluorescence of cuboids; assay type: cell-based; settings: 48 hrs
# Cytochrome c (CytC) = Cytochrome c (CytC) (Homo sapiens, UniProt P99999 P99999:2-105); assay: apparent KD, electrochemical aptamer sensor on Au, square wave voltammetry 50 Hz, Langmuir-Hill fit; text also prints 515±130 μM (6.19 ng/mL corresponds to abou); settings: tags: RayBiotech Life recombinant human cytochrome c; label: 3' methylene blue
# Cytochrome c (CytC), sequence (P99999 2-105, one chain of several): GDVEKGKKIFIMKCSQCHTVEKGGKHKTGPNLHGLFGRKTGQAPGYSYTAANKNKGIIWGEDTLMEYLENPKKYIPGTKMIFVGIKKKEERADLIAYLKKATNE
# From the text: as §1
molecule,measurement,setting,value
"5′-/ThioMC6-D/CC GTGTCTGGGGCCGACCGGCGCATTGGGTACGTTGTTGC/AmMO/-3′ (DNA CCGTGTCTGGGGCCGACCGGCGCATTGGGTACGTTGTTGC; chemistry not fully specified) [CytC aptasensor, DNA aptamer recognizing cytochrome C, modified with methylene blue redox reporter, immobilized on gold working electrode]",detectable relevant concentrations,CytC [1]; 50 Hz,up to 3.32 μM
same,dynamic range,CytC [1]; 50 Hz,"up to 39,580 ng/mL"
same,"apparent dissociation constant, KD","CytC [1]; calibration curve at 50 Hz, nonlinear regression fit to Langmuir-Hill isotherm",6.19 ± 1.57 ng/mL and ~6 ng/mL
same,time to return to baseline (dissociation),CytC [2],12 h
same,response time to target,"CytC [2]; after addition of 1,000 ng/ml CytC, SWV 50 Hz",≤ 100 s
same,time to return to baseline levels (dissociation),CytC [2]; continuous flow of medium after target removal,approximately 12 hrs
same,signal gain for CytC vs interfering molecules,"CytC [3]; CytC 100 ng/mL vs FGF, EGF, IL-2, BSA at 100 ng/mL, growth medium, 50 Hz",higher signal gain
same,signal gain for CytC vs drugs used for treatment,"CytC [3]; CytC 100 and 2000 ng/mL vs DMSO, MOC, FOLFOX, Cisplatin, Staurosporine, YM-155, culture medium, 50 Hz, 1,000 Hz, KDM",higher signal gain
"Nc1ccccc1NC(=O)c1ccc(CNc2nccc(-c3cccnc3)n2)cc1 [MOC, mocetinostat]",CytC production rate vs DMSO control,"[4]; 10 μM MOC, 48 hrs, not statistically significant",higher average CytC production rate than the DMSO control
same,SG dead stain fluorescence vs DMSO control,[5]; 10 μM MOC,slightly elevated SG dead stain fluorescence
N.N.[Cl][Pt][Cl] [cisplatin],CytC level vs control,[4]; 30 μM cisplatin,higher CytC level compared to the control
same,CytC level vs control,[4]; 100 μM cisplatin,highest levels of CytC
same,SG dead stain fluorescence vs control,[5]; 30 μM cisplatin,higher SG dead stain fluorescence
same,SG dead stain fluorescence vs control,[5]; 100 μM cisplatin,higher SG dead stain fluorescence
B1,binding result,Cytochrome c (CytC),binds
